The results in this text go back to US10806736B2 (priority 2018, dated 2020).

Entries after “also recorded” stand apart in the source; their conditions may differ.

The subject of one test is p53. The test can be described thus: p53 protein expression by western blotting in macrophages infected with M. tuberculosis. The test is classed as cell-based. The settings on record: rat BMDMs infected with M. tuberculosis H37Ra (one bacterium per cell); 10 μM; compared to Nutlin-3α; β-actin inner control. The text has this: It is confirmed whether p53 is expressed, when a cell is infected with M. tuberculosis, by subjecting the cell to the compound (K279-1558). Also, in order to analyze the role of p53 expression, the effect of p53 expression is confirmed from macrophages infected with M. tuberculosis. The cells were infected with avirulent M. tuberculosis (Mycobacterium tuberculosis H37Ra) in a ratio of one bacterium per cell by using bone marrow-derived macrophages (BMDMs), which is a rat-derived macrophage, and then the cells were subjected to Nutlin-3α and the compound (K279-1558) in a concentration of 10 μM. Thereafter, the number of M. tuberculosis surviving in the cells was measured.
A general note: In western blotting, separated proteins are transferred to a membrane and probed.

Test [1] relates to Mycobacterium tuberculosis H37Ra. The test is classed as cell-based. The settings on record: 10 μM; after 24 hours.

Regarding `CCC(SC1=Nc2ccccc2C2=NC(CC(=O)NCCc3ccccc3)C(=O)N12)C(=O)NCc1ccc(C)cc1` (stereo not drawn) [K279-1558], the “p53 activity / degree of p53 protein expression (western blotting)” value in the test on p53 is reported as “remarkably higher; also recorded: increases remarkably”. Further, the “number of M. tuberculosis surviving in macrophages” value in test [1] is recorded as “dropped sharply; also recorded: decreased sharply”.

With `COc1ccc(C2=N[C@@H](c3ccc(Cl)cc3)[C@@H](c3ccc(Cl)cc3)N2C(=O)N2CCNC(=O)C2)c(OC(C)C)c1` [Nutlin-3α, reference compound], in test [1], the “number of M. tuberculosis surviving in macrophages” value is reported as “decreased sharply”.
